# Reference: patent US6737383B1, “Herbicidal oxadiazolidines” (priority 1999, dated 2004)
# Key:
# corn = assay: Test B pre/postemergence corn; type: in vivo, Zea mays
# How it was run: (§1)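 Test chemicals in a non-phytotoxic solvent mixture with surfactant were sprayed preemergence onto planted seeds and postemergence onto plants 2 to 18 cm tall (1- to 4-leaf stage). After twelve to sixteen days in a greenhouse, injury was visually rated against untreated controls from 0 (no effect) to 10 (complete control).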
# purple nutsedge = assay: Test B pre/postemergence purple nutsedge; type: in vivo, Cyperus rotundus; conditions: for Plant response rating, Nutsedge: scale of 0 to 10 where 0 is no effect and 10 is complete control
# How it was run: as §1
# rice = assay: Test B flood test rice; type: in vivo, Oryza sativa
# How it was run: (§2)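 Read-out is a visual response score from 0 (no effect) to 10 (complete control), assigned by comparison with untreated controls. Treatment was applied at the 2-leaf stage, and plants stayed in the greenhouse for twelve to sixteen days before scoring.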
# wheat = assay: Test B pre/postemergence wheat; type: in vivo, Triticum aestivum; conditions: for Plant response rating, Wheat: scale of 0 to 10 where 0 is no effect and 10 is complete control
# How it was run: as §1
# crabgrass = assay: Test B pre/postemergence crabgrass; type: in vivo, Digitaria sanguinalis
# How it was run: as §1
# pigweed = assay: Test B pre/postemergence pigweed; type: in vivo, Amaranthus retroflexus; conditions: for Plant response rating, Redroot pigweed: scale of 0 to 10 where 0 is no effect and 10 is complete control
# How it was run: as §1
# blackgrass = assay: Test B pre/postemergence blackgrass; type: in vivo, Alopecurus myosuroides
# How it was run: as §1
# morningglory = assay: Test B pre/postemergence morningglory; type: in vivo, Ipomoea hederacea; conditions: for Plant response rating, Morningglory: scale of 0 to 10 where 0 is no effect and 10 is complete control
# How it was run: as §1
# surinam grass = assay: Test B pre/postemergence surinam grass; type: in vivo, Brachiaria decumbens
# How it was run: as §1
# bedstraw = assay: Test B pre/postemergence bedstraw; type: in vivo, Galium aparine
# How it was run: as §1
# giant foxtail = assay: Test B pre/postemergence giant foxtail; type: in vivo, Setaria faberii
# How it was run: as §1
# sugar beet = assay: Test B pre/postemergence sugar beet; type: in vivo, Beta vulgaris; conditions: for Plant response rating, Sugarbeets: scale of 0 to 10 where 0 is no effect and 10 is complete control
# How it was run: as §1
# smallflower flatsedge = assay: Test B flood test smallflower flatsedge; type: in vivo, Cyperus difformis
# How it was run: as §2
# rape = assay: Test B pre/postemergence rape; type: in vivo, Brassica napus; conditions: for Plant response rating, Rape: scale of 0 to 10 where 0 is no effect and 10 is complete control
# How it was run: as §1
# bamyardgrass = assay: Test B flood test barnyardgrass; type: in vivo, Echinochloa crus-galli
# How it was run: as §2
# wild oat = assay: Test B pre/postemergence wild oat; type: in vivo, Avena fatua; conditions: for Plant response rating, Wild oats: scale of 0 to 10 where 0 is no effect and 10 is complete control
# How it was run: as §1
# [1] = Postemergence, Rate 250 g/ha, scale 0 to 10
# [2] = Postemergence, Rate 500 g/ha, scale of 0 to 10 where 0 is no effect and 10 is complete control
# [3] = Preemergence, Rate 62 g/ha, scale of 0 to 10 where 0 is no effect and 10 is complete control
# [4] = Preemergence, Rate 125 g/ha, scale of 0 to 10 where 0 is no effect and 10 is complete control
# [5] = Preemergence, Rate 250 g/ha, scale 0 to 10, 0 is no effect, 10 is complete control
# [6] = Preemergence, Rate 500 g/ha, scale 0 to 10, 0 is no effect, 10 is complete control
# [7] = Rate 62 g/ha, Postemergence, scale 0 to 10 (0 no effect, 10 complete control)
# [8] = Rate 125 g/ha, Postemergence, scale 0 to 10, 0 is no effect, 10 is complete control
# [9] = Rate 62 g/ha, flood test species, Pre-emergence, visual evaluation after twelve to sixteen days
# [10] = Rate 125 g/ha, under heading Pre-emergence, flood test species, visual evaluation after twelve to sixteen days
# [11] = Rate 250 g/ha, Pre-emergence (flood test species), scale 0 to 10, 0 is no effect, 10 is complete control
# [12] = Rate 500 g/ha, Pre-emergence, flood test species, scale 0 to 10 (0 no effect, 10 complete control)
compound,measurement,setting,value
CC(C)N(C(=O)n1oc(=O)n(CC2=NOCC2)c1=O)c1ccc(F)cc1 [Compound 466],Corn plant response rating,corn; [1],0
same,Corn plant response rating,corn; [2],2
same,"Plant response rating, Corn",corn; [3],0
same,"Plant response rating, Corn",corn; [4],0
same,Corn plant response rating,corn; [5],0
same,Corn plant response rating,corn; [6],4
same,Corn plant response rating,corn; [7],0
same,Corn plant response rating,corn; [8],0
same,Nutsedge plant response rating,purple nutsedge; [1],0
same,"Plant response rating, Nutsedge","purple nutsedge; Preemergence, Rate 62 g/ha",0
same,"Plant response rating, Nutsedge","purple nutsedge; Preemergence, Rate 125 g/ha",0
same,Nutsedge plant response rating,purple nutsedge; [5],0
same,Nutsedge plant response rating,purple nutsedge; [7],0
same,Nutsedge plant response rating,purple nutsedge; [8],0
same,"Plant response rating, Rice (0 to 10 scale, 0 is no effect, 10 is complete control)",rice; [9],0
same,"Rice plant response rating (0 to 10 scale, 0 is no effect, 10 is complete control)",rice; [10],0
same,Rice plant response rating,rice; [11],0
same,Rice plant response rating,rice; [12],0
same,Wheat plant response rating,wheat; [1],0
same,"Plant response rating, Wheat","wheat; Preemergence, Rate 62 g/ha",0
same,"Plant response rating, Wheat","wheat; Preemergence, Rate 125 g/ha",0
same,Wheat plant response rating,wheat; [5],0
same,Wheat plant response rating,wheat; [6],1
same,Wheat plant response rating,wheat; [7],0
same,Wheat plant response rating,wheat; [8],0
same,Crabgrass plant response rating,crabgrass; [1],9
same,Crabgrass plant response rating,crabgrass; [2],9
same,"Plant response rating, Crabgrass",crabgrass; [3],6
same,"Plant response rating, Crabgrass",crabgrass; [4],9
same,Crabgrass plant response rating,crabgrass; [5],10
same,Crabgrass plant response rating,crabgrass; [6],10
same,Crabgrass plant response rating,crabgrass; [7],9
same,Crabgrass plant response rating,crabgrass; [8],9
same,Redroot pigweed plant response rating,pigweed; [1],3
same,"Plant response rating, Redroot pigweed","pigweed; Preemergence, Rate 62 g/ha",1
same,"Plant response rating, Redroot pigweed","pigweed; Preemergence, Rate 125 g/ha",7
same,Redroot pigweed plant response rating,pigweed; [5],9
same,Redroot pigweed plant response rating,pigweed; [6],10
same,Redroot pigweed plant response rating,pigweed; [7],2
same,Redroot pigweed plant response rating,pigweed; [8],2
same,Blackgrass plant response rating,blackgrass; [1],8
same,Blackgrass plant response rating,blackgrass; [2],9
same,"Plant response rating, Blackgrass",blackgrass; [3],2
same,"Plant response rating, Blackgrass",blackgrass; [4],5
same,Blackgrass plant response rating,blackgrass; [5],7
same,Blackgrass plant response rating,blackgrass; [6],8
same,Blackgrass plant response rating,blackgrass; [7],8
same,Morningglory plant response rating,morningglory; [1],2
same,"Plant response rating, Morningglory","morningglory; Preemergence, Rate 62 g/ha",0
same,"Plant response rating, Morningglory","morningglory; Preemergence, Rate 125 g/ha",0
same,Morningglory plant response rating,morningglory; [5],0
same,Morningglory plant response rating,morningglory; [6],0
same,Morningglory plant response rating,morningglory; [7],0
same,Morningglory plant response rating,morningglory; [8],2
same,B. signalgrass plant response rating,"surinam grass; Postemergence, Rate 250 g/ha, scale 0 to 10, 0 no effect, 10 complete control",3
same,B. signalgrass plant response rating,surinam grass; [2],7
same,"Plant response rating, B. signalgrass",surinam grass; [3],0
same,"Plant response rating, B. signalgrass",surinam grass; [4],3
same,B. signalgrass plant response rating,surinam grass; [5],6
same,B. signalgrass plant response rating,surinam grass; [6],9
same,B. signalgrass plant response rating,surinam grass; [7],2
same,B. signalgrass plant response rating,surinam grass; [8],2
same,Bedstraw plant response rating,bedstraw; [1],4
same,"Plant response rating, Bedstraw",bedstraw; [4],2
same,Bedstraw plant response rating,bedstraw; [6],2
same,Bedstraw plant response rating,bedstraw; [7],4
same,Giant foxtail plant response rating,giant foxtail; [1],9
same,Giant foxtail plant response rating,giant foxtail; [2],9
same,"Plant response rating, Giant foxtail",giant foxtail; [3],9
same,"Plant response rating, Giant foxtail",giant foxtail; [4],10
same,Giant foxtail plant response rating,giant foxtail; [5],10
same,Giant foxtail plant response rating,giant foxtail; [6],10
same,Giant foxtail plant response rating,giant foxtail; [7],9
same,Sugarbeets plant response rating,sugar beet; [1],0
same,"Plant response rating, Sugarbeets","sugar beet; Preemergence, Rate 62 g/ha",0
same,"Plant response rating, Sugarbeets","sugar beet; Preemergence, Rate 125 g/ha",0
same,Sugarbeets plant response rating,sugar beet; [5],2
same,Sugarbeets plant response rating,sugar beet; [6],4
same,Sugarbeets plant response rating,sugar beet; [7],0
same,Sugarbeets plant response rating,sugar beet; [8],0
same,"Plant response rating, S. Flatsedge (0 to 10 scale, 0 is no effect, 10 is complete control)",smallflower flatsedge; [9],0
same,"S. Flatsedge plant response rating (0 to 10 scale, 0 is no effect, 10 is complete control)",smallflower flatsedge; [10],0
same,S. Flatsedge plant response rating,smallflower flatsedge; [11],0
same,S. Flatsedge plant response rating,smallflower flatsedge; [12],0
same,Rape plant response rating,rape; [1],0
same,"Plant response rating, Rape","rape; Preemergence, Rate 62 g/ha",0
same,"Plant response rating, Rape","rape; Preemergence, Rate 125 g/ha",0
same,Rape plant response rating,rape; [5],0
same,Rape plant response rating,rape; [6],3
same,Rape plant response rating,rape; [7],0
same,Rape plant response rating,rape; [8],0
same,"Plant response rating, Barnyardgrass (0 to 10 scale, 0 is no effect, 10 is complete control)",bamyardgrass; [9],0
same,"Barnyardgrass plant response rating (0 to 10 scale, 0 is no effect, 10 is complete control)",bamyardgrass; [10],0
same,Barnyardgrass plant response rating,bamyardgrass; [11],0
same,Barnyardgrass plant response rating,bamyardgrass; [12],0
same,Wild oats plant response rating,wild oat; [1],0
same,"Plant response rating, Wild oats","wild oat; Preemergence, Rate 62 g/ha",0
same,"Plant response rating, Wild oats","wild oat; Preemergence, Rate 125 g/ha",0
same,Wild oats plant response rating,wild oat; [5],3
same,Wild oats plant response rating,wild oat; [6],7
same,Wild oats plant response rating,wild oat; [7],0
same,Wild oats plant response rating,wild oat; [8],0
